Experimental data as given in patent publication EP4420677A1, “VACCINES AGAINST TERT-POSITIVE TUMORS” (Altevax, priority 2023, dated 2024).
Peptide text beside a SMILES is read from it.

Key:
[1] = Peptide stability in solution at pH 7.4 (HPLC peak area vs reference); format: physicochemical; settings: for Stability of peptides (ratio of the pick area on the indicated day/ pic area of a fresh solution of the same peptide): 7-day incubation in solution at pH7.4, - 20°C; for stability in solution (in words): in solution at physiological pH (pH 7.4)
Experimental: To develop a relevant vaccine, it is necessary to have a proper drug substance stability. To assess stability, the peptides were diluted at à 0,5 mg/mL in water, adjusted at pH 7.4, frozen at -20° C, and analyzed by HPLC (Hypersil GOLD C8 15cm x 4.6mm x 5µm (ThermoFisher) on the indicated day, using an elution buffer CH3CN 15%, TFA 0,1%. The pic area was compared to a reference standard.
Indeed, after 7 days at -20°C, the pic of SEQ ID NO: 4 was reduced by 53%, while SEQ ID NO: 7 was stable (> 95%) for at least 3 months at pH7.4 at -20°C, and at least 7 days at room temperature. Table 4: Stability of peptides after a 7-day incubation period in solution at pH7.4 at different temperature (ratio of the pick area on the indicated day/ pic area of a fresh solution of the same peptide)

[2] = as above; format: physicochemical
[3] = format: binding; settings: pH 7.5
Experimental: L-Dopa alone (0.8mg/ml) was polymerized into melanin for 2h at pH 8.5 and 60°C under agitation. The reaction mixture was then filtered on a 10kDa filter, and the retentate containing the synthetic melanin was resuspended at pH 7.5 in phosphate buffer. Peptides were then added (at the weight ratio melanin/peptide of 2) and the mixtures were incubated for 18 hours at room temperature. Tricine-SDS-PAGE analysis was performed as described in Carpentier; 2017 (op. cit.). Briefly, samples (peptide-Mel or peptide alone) were loaded on acrylamide gels. Following electrophoresis, the gels were stained with Coomassie Brilliant Blue R-250 and imaged with the ChemiDoc XRS+ system (Bio-Rad Laboratory), allowing the quantification of the free peptide in the gel. The binding of peptides to melanin was expressed as the ratio: [amount of unbound peptide in samples Peptide-Mel / amount of peptides in control samples containing peptides alone]. […] Table 3: Binding of peptides on synthetic melanin. L-Dopa (0.8mg/ml) underwent an oxidative polymerization at pH 8.5 in aerobic conditions for 2 hours at 60°C. The reaction mixture was then filtered on a 10kDa filter, and the retentate containing the synthetic melanin was resuspended at pH 7.5. […] The percentage of peptides that bound to melanin was then quantified with SPS-page analysis

[4] = Filterability and precipitation of the mixture peptide + melanin; format: physicochemical; settings: mixture peptide + melanine in isotonic saline
Excerpt: Filterability of a medical formulation on a 0.2µ filter is important to achieve a sterile solution.

[5] = 7-day incubation in solution at pH7.4, 4°C
[6] = 7-day incubation in solution at pH7.4, Room temperature

Structure (SMILES)	Stability of peptides (ratio of the pick area on the indicated day/ pic area of a fresh solution of the same peptide) [1] [%]	Stability of peptides (ratio of the pick area on the indicated day/ pic area of a fresh solution of the same peptide) [2, 5] [%]	Stability of peptides (ratio of the pick area on the indicated day/ pic area of a fresh solution of the same peptide) [2, 6] [%]	percentage of peptides that bound to melanin [3] [%]	stability in solution (in words) [1]	stable (remaining peptide) ([1]; at least 3 months at pH7.4 at -20°C) [%]	stable (remaining peptide) ([1]; at least 7 days at room temperature, pH7.4) [%]	time remaining in suspension [4]
CC[C@H](C)[C@H](NC(=O)CNC(=O)[C@@H](NC(=O)[C@H](CO)NC(=O)[C@H](CCC(N)=O)NC(=O)[C@H](CC(C)C)NC(=O)[C@H](CCCCN)NC(=O)[C@H](CO)NC(=O)[C@H](Cc1c[nH]c2ccccc12)NC(=O)[C@@H](NC(=O)[C@H](CO)NC(=O)[C@@H](N)CCCCN)C(C)C)[C@@H](C)CC)C(=O)N[C@@H](CCCNC(=N)N)C(=O)N[C@@H](CCC(N)=O)C(=O)N[C@@H](Cc1c[nH]cn1)C(=O)O [SEQ ID NO: 1, KSVWSKLQSIGIRQH, reference compound]	100	98	92					
CC[C@H](C)[C@H](NC(=O)CNC(=O)[C@@H](NC(=O)[C@H](CO)NC(=O)[C@H](CCC(N)=O)NC(=O)[C@H](CC(C)C)NC(=O)[C@H](CCCCN)NC(=O)[C@H](CO)NC(=O)[C@H](Cc1c[nH]c2ccccc12)NC(=O)[C@@H](NC(=O)[C@H](CO)NC(=O)[C@H](CCCCN)NC(=O)[C@@H](N)CS)C(C)C)[C@@H](C)CC)C(=O)N[C@@H](CCCNC(=N)N)C(=O)N[C@@H](CCC(N)=O)C(=O)N[C@@H](Cc1c[nH]cn1)C(=O)O [SEQ ID NO: 4, CKSVWSKLQSIGIRQH] (H-CKSVWSKLQSIGIRQH-OH)	47			59	highly unstable			
CC[C@H](C)[C@H](NC(=O)CNC(=O)[C@@H](NC(=O)[C@H](CO)NC(=O)[C@H](CCC(N)=O)NC(=O)[C@H](CC(C)C)NC(=O)[C@H](CCCCN)NC(=O)[C@H](CO)NC(=O)[C@H](Cc1c[nH]c2ccccc12)NC(=O)[C@@H](NC(=O)[C@H](CO)NC(=O)[C@H](CCCCN)NC(=O)[C@@H](N)CCSC)C(C)C)[C@@H](C)CC)C(=O)N[C@@H](CCCNC(=N)N)C(=O)N[C@@H](CCC(N)=O)C(=O)N[C@@H](Cc1c[nH]cn1)C(=O)O [SEQ ID NO: 5, MKSVWSKLQSIGIRQH] (H-MKSVWSKLQSIGIRQH-OH)	23	25	3		highly unstable			
CC[C@H](C)[C@H](NC(=O)CNC(=O)[C@@H](NC(=O)[C@H](CO)NC(=O)[C@H](CCC(N)=O)NC(=O)[C@H](CC(C)C)NC(=O)[C@H](CCCCN)NC(=O)[C@H](CO)NC(=O)[C@H](Cc1c[nH]c2ccccc12)NC(=O)[C@@H](NC(=O)[C@H](CO)NC(=O)[C@H](CCCCN)NC(=O)[C@@H](N)CO)C(C)C)[C@@H](C)CC)C(=O)N[C@@H](CCCNC(=N)N)C(=O)N[C@@H](CCC(N)=O)C(=O)N[C@@H](Cc1c[nH]cn1)C(=O)O [SEQ ID NO: 7, SKSVWSKLQSIGIRQH] (H-SKSVWSKLQSIGIRQH-OH)	100	100	100		very stable	> 95	> 95	more than 18 hours
